Measured values from the supplement of paper PMC10307832.

What was measured:
Experiment in all cases: relative viability (nuclei count vs DMSO), 5 days (fraction); higher = more cells survive
NCI-H522 = system: NCI-H522
Procedure, shortened: (§1)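 The day after seeding in 1536-well plates, lung cancer cell lines were treated by pin tool with a single drug, or with a fixed anchor-drug dose together with five library-drug doses (not always all listed) in √10 steps. After 5 days, a combined fix-and-stain solution (final 0.05% Triton X-100, 1% formaldehyde, 1 ug/ml Hoechst) was added. Nuclei counted on 4× images gave relative viability as treated counts over vehicle counts, reported as the median of duplicate plates.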

PC-14 = system: PC-14
Procedure, shortened: as §1

NCI-H1792 = system: NCI-H1792
Procedure, shortened: as §1

NCI-H1915 = system: NCI-H1915
Procedure, shortened: as §1

NCI-H1651 = system: NCI-H1651
Procedure, shortened: as §1

NCI-H460 = system: NCI-H460
Procedure, shortened: as §1

NCI-H596 = system: NCI-H596
Procedure, shortened: as §1

NCI-H322M = system: NCI-H322M
Procedure, shortened: as §1

LXF-289 = system: LXF-289
Procedure, shortened: as §1

SW 900 = system: SW 900
Procedure, shortened: as §1

NCI-H1355 = system: NCI-H1355
Procedure, shortened: as §1

NCI-H441 = system: NCI-H441
Procedure, shortened: as §1

COc1cc(N2CCC(C(N)=O)CC2)ccc1Nc1nc(N)c(Cl)c(Nc2ccccc2S(=O)(=O)C(C)C)n1 [HG-5-88-01] + Nc1ncn([C@H]2C[C@H](O)[C@@H](CO)O2)c(=O)n1 [Decitabine] (partner 2 µM)
relative viability (NCI-H522; first compound 1.265 µM): 0.687
relative viability (NCI-H522; first compound 4 µM): 0.649
relative viability (PC-14; first compound 0.04 µM): 0.215
relative viability (PC-14; first compound 0.1265 µM): 0.231
relative viability (PC-14; first compound 0.4 µM): 0.235
relative viability (PC-14; first compound 1.265 µM): 0.206
relative viability (PC-14; first compound 4 µM): 0.0628
relative viability (NCI-H1792; first compound 0.04 µM): 0.628
relative viability (NCI-H1792; first compound 0.1265 µM): 0.452
relative viability (NCI-H1792; first compound 0.4 µM): 0.579
relative viability (NCI-H1792; first compound 1.265 µM): 0.564
relative viability (NCI-H1792; first compound 4 µM): 0.545
relative viability (NCI-H1915; first compound 0.04 µM): 0.254
relative viability (NCI-H1915; first compound 0.1265 µM): 0.279
relative viability (NCI-H1915; first compound 0.4 µM): 0.275
relative viability (NCI-H1915; first compound 1.265 µM): 0.248
relative viability (NCI-H1915; first compound 4 µM): 0.254
relative viability (NCI-H1651; first compound 0.04 µM): 0.536
relative viability (NCI-H1651; first compound 0.1265 µM): 0.635
relative viability (NCI-H1651; first compound 0.4 µM): 0.717
relative viability (NCI-H1651; first compound 1.265 µM): 0.581
relative viability (NCI-H1651; first compound 4 µM): 0.714
relative viability (NCI-H460; first compound 0.04 µM): 0.478
relative viability (NCI-H460; first compound 0.1265 µM): 0.493
relative viability (NCI-H460; first compound 0.4 µM): 0.494
relative viability (NCI-H460; first compound 1.265 µM): 0.578
relative viability (NCI-H460; first compound 4 µM): 0.419
relative viability (NCI-H596; first compound 0.04 µM): 1.02
relative viability (NCI-H596; first compound 0.1265 µM): 0.973
relative viability (NCI-H596; first compound 0.4 µM): 1.04
relative viability (NCI-H596; first compound 1.265 µM): 0.981
relative viability (NCI-H596; first compound 4 µM): 0.974
relative viability (NCI-H322M; first compound 0.04 µM): 0.693
relative viability (NCI-H322M; first compound 0.1265 µM): 0.68
relative viability (NCI-H322M; first compound 0.4 µM): 0.781
relative viability (NCI-H322M; first compound 1.265 µM): 0.483
relative viability (NCI-H322M; first compound 4 µM): 0.706
relative viability (LXF-289; first compound 0.04 µM): 0.324
relative viability (LXF-289; first compound 0.1265 µM): 0.402
relative viability (LXF-289; first compound 0.4 µM): 0.464
relative viability (LXF-289; first compound 1.265 µM): 0.423
relative viability (LXF-289; first compound 4 µM): 0.427
relative viability (SW 900; first compound 0.04 µM): 0.419
relative viability (SW 900; first compound 0.1265 µM): 0.441
relative viability (SW 900; first compound 0.4 µM): 0.528
relative viability (SW 900; first compound 1.265 µM): 0.492
relative viability (SW 900; first compound 4 µM): 0.436
relative viability (NCI-H1355; first compound 0.04 µM): 0.337
relative viability (NCI-H1355; first compound 0.1265 µM): 0.382
relative viability (NCI-H1355; first compound 0.4 µM): 0.38
relative viability (NCI-H1355; first compound 1.265 µM): 0.334
relative viability (NCI-H1355; first compound 4 µM): 0.331
relative viability (NCI-H441; first compound 0.04 µM): 0.235
relative viability (NCI-H441; first compound 0.1265 µM): 0.28
relative viability (NCI-H441; first compound 0.4 µM): 0.272
relative viability (NCI-H441; first compound 1.265 µM): 0.231
relative viability (NCI-H441; first compound 4 µM): 0.271
